Reference: the NIST ThermoML archive (doi:10.1021/je700245a)

Test: xn = mol fraction of the nth substance listed
Settings: 101 kPa, Liquid

OCCN(CCO)CCO [triethanolamine] + CCO
Settings	mass density [kg/m3]	speed of sound [m/s]
288.15 K, x1 = 0.0075	799.61	1185.2
288.15 K, x1 = 0.0184	808.53	1193.4
288.15 K, x1 = 0.0304	818	1202.1
288.15 K, x1 = 0.0622	840.61	1225.5
288.15 K, x1 = 0.1385	889.41	1277
288.15 K, x1 = 0.2275	935.37	1333.2
288.15 K, x1 = 0.335	979.49	1397
288.15 K, x1 = 0.4675	1021.75	1453.1
288.15 K, x1 = 0.6413	1064.29	1528
288.15 K, x1 = 0.779	1091.59	1558.4
288.15 K, x1 = 0.8537	1104.43	1597.9
288.15 K, x1 = 0.9328	1116.76	1617.3
288.15 K, x1 = 1	1126.19	1640.5
293.15 K, x1 = 0.0075	795.43	1168.3
293.15 K, x1 = 0.0184	804.51	1176.9
293.15 K, x1 = 0.0304	813.73	1185.9
293.15 K, x1 = 0.0622	836.37	1210
293.15 K, x1 = 0.1385	885.58	1262.7
293.15 K, x1 = 0.2275	931.77	1320
293.15 K, x1 = 0.335	976.06	1385
293.15 K, x1 = 0.4675	1018.53	1442.5
293.15 K, x1 = 0.6413	1061.37	1516.6
293.15 K, x1 = 0.779	1088.73	1546.8
293.15 K, x1 = 0.8537	1101.67	1585.3
293.15 K, x1 = 0.9328	1114.01	1604.6
293.15 K, x1 = 1	1123.42	1625.6
298.15 K, x1 = 0.0075	791.34	1151.4
298.15 K, x1 = 0.0184	800.35	1160.4
298.15 K, x1 = 0.0304	809.59	1170
298.15 K, x1 = 0.0622	832.35	1194.4
298.15 K, x1 = 0.1385	881.74	1248.6
298.15 K, x1 = 0.2275	928.14	1307.1
298.15 K, x1 = 0.335	972.67	1373.1
298.15 K, x1 = 0.4675	1015.52	1431.6
298.15 K, x1 = 0.6413	1058.61	1505.9
298.15 K, x1 = 0.779	1086.14	1536.4
298.15 K, x1 = 0.8537	1099.23	1574.3
298.15 K, x1 = 0.9328	1111.63	1593.8
298.15 K, x1 = 1	1120.99	1614.5
303.15 K, x1 = 0.0075	786.78	1134.6
303.15 K, x1 = 0.0184	796.27	1143.9
303.15 K, x1 = 0.0304	805.5	1153.8
303.15 K, x1 = 0.0622	828.41	1178.9
303.15 K, x1 = 0.1385	877.88	1234.5
303.15 K, x1 = 0.2275	924.44	1294.3
303.15 K, x1 = 0.335	969.17	1361.4
303.15 K, x1 = 0.4675	1012.27	1420.9
303.15 K, x1 = 0.6413	1055.67	1496
303.15 K, x1 = 0.779	1083.38	1526.6
303.15 K, x1 = 0.8537	1096.33	1564.5
303.15 K, x1 = 0.9328	1108.88	1584.2
303.15 K, x1 = 1	1118.21	1604.5
308.15 K, x1 = 0.0075	782.53	1117.9
308.15 K, x1 = 0.0184	791.61	1127.4
308.15 K, x1 = 0.0304	801.05	1137.7
308.15 K, x1 = 0.0622	824.11	1163.4
308.15 K, x1 = 0.1385	873.56	1220.4
308.15 K, x1 = 0.2275	920.24	1281.5
308.15 K, x1 = 0.335	965.2	1349.9
308.15 K, x1 = 0.4675	1008.69	1410.5
308.15 K, x1 = 0.6413	1052.55	1486.6
308.15 K, x1 = 0.779	1080.43	1517.4
308.15 K, x1 = 0.8537	1093.46	1555.6
308.15 K, x1 = 0.9328	1106.09	1575.4
308.15 K, x1 = 1	1115.38	1595.5
313.15 K, x1 = 0.0075	778.51	1101.2
313.15 K, x1 = 0.0184	787.72	1111.1
313.15 K, x1 = 0.0304	797.32	1121.6
313.15 K, x1 = 0.0622	820.47	1148
313.15 K, x1 = 0.1385	869.89	1206.4
313.15 K, x1 = 0.2275	916.68	1268.8
313.15 K, x1 = 0.335	961.76	1338.4
313.15 K, x1 = 0.4675	1005.44	1400.1
313.15 K, x1 = 0.6413	1049.55	1477.3
313.15 K, x1 = 0.779	1077.53	1508.5
313.15 K, x1 = 0.8537	1090.66	1547
313.15 K, x1 = 0.9328	1103.23	1567.1
313.15 K, x1 = 1	1112.57	1586

CCO [ethanol] + CN(CCO)CCO
Sing-around technique in a fixed-path interferometer, x2 = 0
Settings	speed of sound [m/s]
288.15 K	1179
293.15 K	1162
298.15 K	1144.9
303.15 K	1128
308.15 K	1111.1
313.15 K	1094.3

x2 = 0
Settings	mass density [kg/m3]
288.15 K	793.6
293.15 K	789.35
298.15 K	785.06
303.15 K	780.76
308.15 K	776
313.15 K	772.03

CN(CCO)CCO [N-methyldiethanolamine] + CCO
speed of sound [m/s], Sing-around technique in a fixed-path interferometer
Settings	288.15 K	293.15 K	298.15 K	303.15 K	308.15 K	313.15 K
x1 = 0.0049	1183.1	1166	1149.2	1132.3	1114.8	1098.8
x1 = 0.0253	1201.7	1184.9	1168	1151.2	1134.5	1117.9
x1 = 0.0524	1222.5	1205.9	1189.3	1172.7	1156.3	1139.8
x1 = 0.102	1260.9	1244.5	1228.1	1211.8	1195.6	1179.5
x1 = 0.1629	1301	1286	1272.9	1257.3	1241.5	1225.8
x1 = 0.2474	1353	1338	1325	1310	1293	1278
x1 = 0.3713	1415	1399.7	1384.6	1369.4	1354.1	1339
x1 = 0.4806	1460	1444	1429.2	1414	1398.8	1383.7
x1 = 0.5506	1486	1470	1457	1439	1423.8	1408.7
x1 = 0.7035	1536	1520	1500	1484.3	1468.9	1453.6
x1 = 0.7916	1557	1542	1522	1505.6	1490.3	1475.1
x1 = 0.8688	1573.2	1557.7	1538	1520.8	1506.2	1491.5
x1 = 0.9415	1588.4	1572.9	1553	1535	1520.4	1506.1
x1 = 1	1598.8	1583.1	1564	1546	1531	1516

mass density [kg/m3]
Settings	288.15 K	293.15 K	298.15 K	303.15 K	308.15 K	313.15 K
x1 = 0.0049	797.34	793.08	788.79	784.48	779.2	775.41
x1 = 0.0253	810.93	806.7	802.07	797.45	792.51	788.32
x1 = 0.0524	826.23	822.03	817.31	812.97	807.85	803.95
x1 = 0.102	855.32	850.46	845.79	841.06	835.99	831.61
x1 = 0.1629	883.86	879	874.36	869.83	864.64	860.34
x1 = 0.2474	916.48	911.75	907.18	902.4	897.2	892.65
x1 = 0.3713	952.15	947.5	942.7	938.24	933.17	928.65
x1 = 0.4806	977.2	973.1	968.28	963.57	958.75	954
x1 = 0.5506	991.1	986.7	982.08	977.52	972.75	967.98
x1 = 0.7035	1013.7	1009.24	1005.04	1000.62	996.08	991.6
x1 = 0.7916	1024.1	1019.88	1015.3	1011.24	1006.79	1002.49
x1 = 0.8688	1032.69	1028.4	1024.2	1019.64	1015.81	1011.97
x1 = 0.9415	1038.68	1034.96	1031.19	1027.42	1023.63	1019.82
x1 = 1	1044.32	1040.6	1036.83	1033.06	1029.26	1025.45

CCO [ethanol] + OCCN(CCO)CCO
x2 = 0
Settings	mass density [kg/m3]	speed of sound [m/s]
288.15 K	793.6	1179
293.15 K	789.35	1162
298.15 K	785.06	1144.9
303.15 K	780.76	1128
308.15 K	776	1111.1
313.15 K	772.03	1094.3
